# Measurements: patent publication US20180200257A1, “METHODS FOR THE TREATMENT OF INFLAMMATORY DISORDERS” (Galapagos NV, priority 2015, published 2018)
# System: subjects with moderately to severely active RA who have an inadequate response to methotrexate (MTX)
# Assay: Study 1 (add-on to MTX) - DAS28(CRP) scores
# Assay type: in vivo, human
# Parameters: key to DAS28(CRP) mean CFB (LOCF): change from baseline in DAS28(CRP) score (joints, CRP, 0-100 VAS)
# Procedure: Double-blind, placebo-controlled add on study in subjects with moderately to severely active RA who have an inadequate response to methotrexate (MTX) (oral or parenteral).
# 595 subjects randomized to one of 6 dose regimens of Compound 1 (dosed as [Compound 1:HCl:3H2O]) (3 dose levels administered either once or twice daily) or placebo on top of each subject's stable dose of MTX.
# Compound 1 (dosed as [Compound 1:HCl:3H2O]) is dosed for twelve weeks once daily (q.d.) (50 mg, 100 mg or 200 mg) or twice daily (b.i.d.) (25 mg, 50 mg or 100 mg); or placebo.
# At Week 12, the subjects on placebo who have not achieved 20% improvement in swollen joint count (SJC66) and tender joint count (TJC68) are re-randomized automatically to receive Compound 1 (dosed as a [Compound 1:HCl:3H2O]) either at 100 mg q.d. or 50 mg b.i.d. doses in a blinded fashion; subjects on 50 mg q.d. who have not achieved 20% improvement in SJC66 and TJC68 will be assigned to 100 mg q.d. and subjects on 25 mg b.i.d. that have not achieved a 20% improvement in SJC66 and TJC68 will be assigned to 50 mg b.i.d. Subjects who switch treatment at week 12 are handled as if they discontinued at week 12 for the purpose of statistical analysis, whereas subjects in the other groups will maintain their randomized treatment until Week 24.
# The (DAS28(CRP)) is a system developed and validated by the European League Against Rheumatism (EULAR) to measure the progress and improvement of rheumatoid arthritis and has been extensively validated (Wells et al., 2008). The DAS28(CRP) scoring includes a 28 tender and swollen joint count, CRP measurement from blood analysis, and a general health assessment on a visual analog scale (Fransen et al., 2003).
# DAS28(CRP) values range from 2.0 to 10.0, and more particularly reflect the following status: • Remission: DAS28(CRP) ≤2.6 • Low Disease activity: 2.6 <DAS28(CRP) ≤3.2 • Moderate Disease Activity: 3.2 <DAS28(CRP) ≤5.1 • High Disease Activity: DAS28(CRP) >5.1
# In practice, the DAS28(CRP) measurement involves the evaluation 28 different joints including in the measurement (proximal interphalangeal joints (10 joints), metacarpophalangeal joints (10), wrists (2), elbows (2), shoulders (2), and knees (2)). When looking at these joints, both the number of joints with tenderness upon touching and swelling are counted.
# Secondly, C-reactive protein level is measured.
# Finally, the patient makes a subjective assessment of disease activity during the preceding 7 days on a scale between 0 and 100, where 0 is “no activity” and 100 is “highest activity possible”.
# The DAS28(CRP) score is then calculated as follows:
# Firstly, the patient is asked to make a vertical mark on a 100 mm Visual Analog Scale (VAS) corresponding to their general health or global disease activity on a touch screen to measure the VAS value, which is used in the formula below.
# Secondly, a swollen and tender joint examination is then performed on the patient. The swollen and tender joints are recorded. From this examination are obtained the total amount of swollen joints (SJC) and the total amount of tender joints (TJC), which are used in the formula below.
# Thirdly, C-reactive protein (CRP) levels are measured.
# Finally, the values obtained above (VAS, TJC28, SJC28, and CRP) are computed into the following Formula to obtain the DAS28(CRP) score.
# DAS28(CRP)=0.56*√{square root over (TJC28)}+0.28√{square root over (SJC28)}+[…] ln(CRP+1)+0.014*VAS
# The improvement (decreases) in the DAS28(CRP) scores for each patient group at weeks 1, 2, 4, 8 and 12 is shown in Table LXXXVII and Table LXXXVIII below, together with the Hommel-corrected p-value for the pairwise comparisons of each group with placebo.
# The number of subjects (N) provided in each groups corresponds to the number of subjects starting the study in each group, and the DAS28 (CRP) data reported below corresponds to the responding subjects continuing for the entire 24 weeks on their initial treatment course.
compound,measurement,setting,value
"O=C(Nc1nc2cccc(-c3ccc(CN4CCS(=O)(=O)CC4)cc3)n2n1)C1CC1 [Compound 1, cyclopropanecarboxylic acid {5-[4-(1,1-dioxo-thiomorpholin-4-ylmethyl)-phenyl]-[1,2,4]triazolo[1,5-a]pyridin-2-yl}-amide]",DAS28(CRP) mean CFB (LOCF),"50 mg q.d., week 1, 12 weeks results",−0.65
same,DAS28(CRP) mean CFB (LOCF),"50 mg q.d., week 1, 24 weeks results",−0.65
same,DAS28(CRP) mean CFB (LOCF),"50 mg q.d., week 2, 12 weeks results",−0.94
same,DAS28(CRP) mean CFB (LOCF),"50 mg q.d., week 2, 24 weeks results",−0.94
same,DAS28(CRP) mean CFB (LOCF),"50 mg q.d., week 4, 12 weeks results",−1.28
same,DAS28(CRP) mean CFB (LOCF),"50 mg q.d., week 4, 24 weeks results",−1.28
same,DAS28(CRP) mean CFB (LOCF),"50 mg q.d., week 12, 12 weeks results",−1.75
same,DAS28(CRP) mean CFB (LOCF),"50 mg q.d., week 12, 24 weeks results",−1.75
same,DAS28(CRP) mean CFB (LOCF),"50 mg q.d., week 16, 24 weeks results",−1.91
same,DAS28(CRP) mean CFB (LOCF),"50 mg q.d., week 20, 24 weeks results",−1.99
same,DAS28(CRP) mean CFB (LOCF),"50 mg q.d., week 24, 24 weeks results",−1.98
same,% patients reaching low disease activity and/or remission at week 12 (LOCF),"50 mg q.d., 12 weeks results",24%
same,% patients reaching low disease activity at week 12 (LOCF),"50 mg q.d., 12 weeks results",12%
same,% patients reaching remission at week 12 (LOCF),"50 mg q.d., 12 weeks results",12%
same,% patients reaching low disease activity and/or remission at week 24 (LOCF),"50 mg q.d., 24 weeks results",33%
same,% patients reaching low disease activity at week 24 (LOCF),"50 mg q.d., 24 weeks results",12%
same,% patients reaching remission at week 24 (LOCF),"50 mg q.d., 24 weeks results",21%
same,DAS28(CRP) mean CFB (LOCF),"50 mg q.d., week 8, 12 weeks results",−1.66
same,DAS28(CRP) mean CFB (LOCF),"50 mg q.d., week 8, 24 weeks results",−1.66
same,DAS28(CRP) mean CFB (LOCF),"100 mg q.d., week 1, 12 weeks results",−1.01
same,DAS28(CRP) mean CFB (LOCF),"100 mg q.d., week 1, 24 weeks results",−1.00
same,DAS28(CRP) mean CFB (LOCF),"100 mg q.d., week 2, 12 weeks results",−1.50
same,DAS28(CRP) mean CFB (LOCF),"100 mg q.d., week 2, 24 weeks results",−1.51
same,DAS28(CRP) mean CFB (LOCF),"100 mg q.d., week 4, 12 weeks results",−1.88
same,DAS28(CRP) mean CFB (LOCF),"100 mg q.d., week 4, 24 weeks results",−1.89
same,DAS28(CRP) mean CFB (LOCF),"100 mg q.d., week 8, 24 weeks results",−2.13
same,DAS28(CRP) mean CFB (LOCF),"100 mg q.d., week 12, 12 weeks results",−2.21
same,DAS28(CRP) mean CFB (LOCF),"100 mg q.d., week 12, 24 weeks results",−2.23
same,DAS28(CRP) mean CFB (LOCF),"100 mg q.d., week 16, 24 weeks results",−2.51
same,DAS28(CRP) mean CFB (LOCF),"100 mg q.d., week 20, 24 weeks results",−2.65
same,DAS28(CRP) mean CFB (LOCF),"100 mg q.d., week 24, 24 weeks results",−2.70
same,% patients reaching low disease activity and/or remission at week 12 (LOCF),"100 mg q.d., 12 weeks results",34%
same,% patients reaching low disease activity at week 12 (LOCF),"100 mg q.d., 12 weeks results",13%
same,% patients reaching remission at week 12 (LOCF),"100 mg q.d., 12 weeks results",21%
same,% patients reaching low disease activity and/or remission at week 24 (LOCF),"100 mg q.d., 24 weeks results",51%
same,% patients reaching low disease activity at week 24 (LOCF),"100 mg q.d., 24 weeks results",14%
same,% patients reaching remission at week 24 (LOCF),"100 mg q.d., 24 weeks results",36%
same,DAS28(CRP) mean CFB (LOCF),"100 mg q.d., week 8, 12 weeks results",−2.12
same,DAS28(CRP) mean CFB (LOCF),"200 mg q.d., week 1, 12 weeks results",−1.17
same,DAS28(CRP) mean CFB (LOCF),"200 mg q.d., week 1, 24 weeks results",−1.17
same,DAS28(CRP) mean CFB (LOCF),"200 mg q.d., week 2, 12 weeks results",−1.52
same,DAS28(CRP) mean CFB (LOCF),"200 mg q.d., week 2, 24 weeks results",−1.52
same,DAS28(CRP) mean CFB (LOCF),"200 mg q.d., week 4, 12 weeks results",−1.92
same,DAS28(CRP) mean CFB (LOCF),"200 mg q.d., week 4, 24 weeks results",−1.92
same,DAS28(CRP) mean CFB (LOCF),"200 mg q.d., week 8, 24 weeks results",−2.31
same,DAS28(CRP) mean CFB (LOCF),"200 mg q.d., week 12, 12 weeks results",−2.49
same,DAS28(CRP) mean CFB (LOCF),"200 mg q.d., week 12, 24 weeks results",−2.47
same,DAS28(CRP) mean CFB (LOCF),"200 mg q.d., week 16, 24 weeks results",−2.70
same,DAS28(CRP) mean CFB (LOCF),"200 mg q.d., week 20, 24 weeks results",−2.86
same,DAS28(CRP) mean CFB (LOCF),"200 mg q.d., week 24, 24 weeks results",−2.80
same,% patients reaching low disease activity and/or remission at week 12 (LOCF),"200 mg q.d., 12 weeks results",37%
same,% patients reaching low disease activity at week 12 (LOCF),"200 mg q.d., 12 weeks results",15%
same,% patients reaching remission at week 12 (LOCF),"200 mg q.d., 12 weeks results",22%
same,% patients reaching low disease activity and/or remission at week 24 (LOCF),"200 mg q.d., 24 weeks results",51%
same,% patients reaching low disease activity at week 24 (LOCF),"200 mg q.d., 24 weeks results",26%
same,% patients reaching remission at week 24 (LOCF),"200 mg q.d., 24 weeks results",26%
same,DAS28(CRP) mean CFB (LOCF),"200 mg q.d., week 8, 12 weeks results",−2.30
